According to PubChem BioAssay AID248 (DTP/NCI, 2004):
Several values for one entry are separate records, joined by “and”; a condition that tells them apart may be missing. Identical values can stand only once. Inconclusive results and toxic doses are left out. Rule as the data show it: active = T/C of 150% or more; inactive = T/C below 125%.

Tested on: L1210 leukemia ip in BDF1 mice, survival T/C
Assay: NCI In Vivo Anticancer Drug Screen. Data for tumor model L1210 Leukemia (intraperitoneal) in B6D2F1 (BDF1) mice
Conditions: endpoint: mean survival time, higher = longer survival
How it was run: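 Transplanted-tumor mice were given test agent; controls received vehicle only. Survival readings from the two groups were divided (treated over control).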

[1] = dose: 100.0 mg/kg/injection, schedule: Q01DX009 (ip), vehicle: Klucel (hydroxypropylcellulose) (HPC)
[2] = dose: 100.0 mg/kg/injection, schedule: Q04DX003 (ip), vehicle: Klucel (hydroxypropylcellulose) (HPC)
[3] = dose: 200.0 mg/kg/injection, schedule: Q01DX009 (ip), vehicle: Klucel (hydroxypropylcellulose) (HPC)
[4] = dose: 200.0 mg/kg/injection, schedule: Q04DX003 (ip), vehicle: Klucel (hydroxypropylcellulose) (HPC)
[5] = dose: 400.0 mg/kg/injection, schedule: Q04DX003 (ip), vehicle: Klucel (hydroxypropylcellulose) (HPC)
[6] = dose: 25.0 mg/kg/injection, schedule: Q01DX009 (ip), vehicle: other
[7] = dose: 50.0 mg/kg/injection, schedule: Q01DX009 (ip), vehicle: other
[8] = dose: 100.0 mg/kg/injection, schedule: Q04DX003 (ip), vehicle: saline with Tween-80
[9] = dose: 200.0 mg/kg/injection, schedule: Q04DX003 (ip), vehicle: saline with Tween-80
[10] = dose: 400.0 mg/kg/injection, schedule: Q04DX003 (ip), vehicle: saline with Tween-80
[11] = dose: 100.0 mg/kg/injection, schedule: Q04DX003 (ip), vehicle: saline

Measured: T/C

CCOc1ccc(N)c([N+](=O)[O-])c1
inactive: dose: 100.0 mg/kg/injection, schedule: Q01DX001 (ip), vehicle: saline 100 % of control | dose: 200.0 mg/kg/injection, schedule: Q01DX001 (ip), vehicle: saline 107 % of control | dose: 400.0 mg/kg/injection, schedule: Q01DX001 (ip), vehicle: saline 105 % of control

COc1c2c(c(OC)c3c(OC)c4ccccc4c(OC)c13)CC=CC2
inactive: dose: 50.0 mg/kg/injection, schedule: Q01DX005 (ip), vehicle: water 94 % of control | dose: 100.0 mg/kg/injection, schedule: Q01DX005 (ip), vehicle: water 87 % of control | dose: 200.0 mg/kg/injection, schedule: Q01DX005 (ip), vehicle: water 89 % of control | dose: 400.0 mg/kg/injection, schedule: Q01DX005 (ip), vehicle: water 87 % of control

COC(=O)Nc1ccc(N)c(NC(=O)OC)n1
inactive: [1] 92 % of control | [2] 106 % of control | [3] 89 % of control | [4] 99 % of control | dose: 400.0 mg/kg/injection, schedule: Q01DX009 (ip), vehicle: Klucel (hydroxypropylcellulose) (HPC) 87 % of control | [5] 100 % of control

CN(N=O)C(=O)NC1C(CO)OC(n2cnc3c(N)ncnc32)C1O (stereo unspecified)
inactive: dose: 13.0 mg/kg/injection, schedule: Q01DX001 (ip), vehicle: saline with Tween-80 104 % of control | dose: 20.0 mg/kg/injection, schedule: Q01DX001 (ip), vehicle: saline with Tween-80 106 % of control | dose: 30.0 mg/kg/injection, schedule: Q01DX001 (ip), vehicle: saline with Tween-80 106 % of control | dose: 44.0 mg/kg/injection, schedule: Q01DX001 (ip), vehicle: saline with Tween-80 116 % of control | dose: 67.0 mg/kg/injection, schedule: Q01DX001 (ip), vehicle: saline with Tween-80 117 % of control | dose: 100.0 mg/kg/injection, schedule: Q01DX001 (ip), vehicle: saline with Tween-80 123 % of control | dose: 150.0 mg/kg/injection, schedule: Q01DX001 (ip), vehicle: saline with Tween-80 117 % of control

C=C1C(=O)OCC1C(=O)O (stereo unspecified)
inactive: dose: 75.0 mg/kg/injection, schedule: Q01DX001 (ip), vehicle: saline 98 % of control

CCc1ccc(/C=C/c2ccc[nH]2)[n+](C)c1
inactive: dose: 5.0 mg/kg/injection, schedule: Q01DX001 (ip), vehicle: carboxymethylcellulose (CMC) 94 % of control | dose: 10.0 mg/kg/injection, schedule: Q01DX001 (ip), vehicle: carboxymethylcellulose (CMC) 94 % of control | dose: 20.0 mg/kg/injection, schedule: Q01DX001 (ip), vehicle: carboxymethylcellulose (CMC) 89 % of control | dose: 40.0 mg/kg/injection, schedule: Q01DX001 (ip), vehicle: carboxymethylcellulose (CMC) 96 % of control | dose: 80.0 mg/kg/injection, schedule: Q01DX001 (ip), vehicle: carboxymethylcellulose (CMC) 91 % of control

O=[N+]([O-])c1ccc(CBr)cc1
inactive: dose: 12.5 mg/kg/injection, schedule: Q01DX009 (ip), vehicle: other 95 % of control | [6] 113 % of control | [7] 104 % of control

Cc1nc2ccccc2c2ccccc12
inactive: dose: 50.0 mg/kg/injection, schedule: Q01DX009 (ip), vehicle: Klucel (hydroxypropylcellulose) (HPC) 111 % of control | [1] 105 % of control | [3] 111 % of control

Cc1ccc(-n2ccnc2)c(N=Cc2ccc(N(CCCl)CCCl)cc2C)c1
inactive: dose: 100.0 mg/kg/injection, schedule: Q04DX002 (ip), vehicle: Klucel (hydroxypropylcellulose) (HPC) 98 % of control | dose: 200.0 mg/kg/injection, schedule: Q04DX002 (ip), vehicle: Klucel (hydroxypropylcellulose) (HPC) 102 % of control | dose: 400.0 mg/kg/injection, schedule: Q04DX002 (ip), vehicle: Klucel (hydroxypropylcellulose) (HPC) 124 % of control

CNC(=O)Oc1cccc(NC(=O)C2CC2)c1
inactive: [8] 94 % of control | [9] 94 % of control | [10] 96 % of control

O=C(O)CCC(=O)NCCNC(c1ccccc1)(c1ccccc1)c1ccccc1
inactive: dose: 12.0 mg/kg/injection, schedule: Q01DX009 (ip), vehicle: saline 96 % of control | dose: 25.0 mg/kg/injection, schedule: Q01DX009 (ip), vehicle: saline 96 % of control | dose: 50.0 mg/kg/injection, schedule: Q01DX009 (ip), vehicle: saline 100 % of control | [11] 111 % of control | dose: 200.0 mg/kg/injection, schedule: Q04DX003 (ip), vehicle: saline 94 % of control | dose: 400.0 mg/kg/injection, schedule: Q04DX003 (ip), vehicle: saline 105 % of control

O=C(O)/C=C\C(=O)Nc1ccc(O)cc1
inactive: [2] 102 % of control | dose: 200.0 mg/kg/injection, schedule: Q01DX Z (ip), vehicle: saline 120 % of control | [4] 110 % of control | [5] 110 % of control | dose: 675.0 mg/kg/injection, schedule: Q01DX Z (ip), vehicle: saline 100 % of control

COC(=O)c1ccc(Cl)c(NN)c1
inactive: [8] 100 % of control | [9] 100 % of control | [10] 105 % of control

c1ccc(Cn2cnc3c2nnn2ncnc32)cc1
inactive: dose: 100.0 mg/kg/injection, schedule: Q01DX001 (ip), vehicle: carboxymethylcellulose (CMC) 106 % of control | dose: 200.0 mg/kg/injection, schedule: Q01DX001 (ip), vehicle: carboxymethylcellulose (CMC) 102 % of control | dose: 400.0 mg/kg/injection, schedule: Q01DX001 (ip), vehicle: carboxymethylcellulose (CMC) 114 % of control

CC(=O)OC(C)(C)/C=C/C(=O)[C@](C)(O)[C@H]1[C@H](O)C[C@@]2(C)[C@@H]3CC=C4[C@@H](C[C@H](O)C(=O)C4(C)C)[C@]3(C)C(=O)C[C@]12C
inactive: dose: 0.12 mg/kg/injection, schedule: Q01DX009 (ip), vehicle: saline 88 % of control | dose: 0.12 mg/kg/injection, schedule: Q04DX003 (ip), vehicle: saline 98 % of control | dose: 0.16 mg/kg/injection, schedule: Q01DX Z (ip), vehicle: saline 100 % of control | dose: 0.25 mg/kg/injection, schedule: Q01DX001 (ip), vehicle: saline 92 % of control | dose: 0.25 mg/kg/injection, schedule: Q01DX009 (ip), vehicle: saline 100 % of control | dose: 0.25 mg/kg/injection, schedule: Q01DX Z (ip), vehicle: saline 113 % of control | dose: 0.25 mg/kg/injection, schedule: Q04DX003 (ip), vehicle: saline 102 % of control | dose: 0.38 mg/kg/injection, schedule: Q01DX Z (ip), vehicle: saline 103 % of control | dose: 0.4 mg/kg/injection, schedule: Q01DX Z (ip), vehicle: carboxymethylcellulose (CMC) 93 % of control and 103 % of control | dose: 0.5 mg/kg/injection, schedule: Q01DX001 (ip), vehicle: saline 98 % of control | dose: 0.5 mg/kg/injection, schedule: Q01DX009 (ip), vehicle: saline 103 % of control | dose: 0.5 mg/kg/injection, schedule: Q04DX003 (ip), vehicle: saline 106 % of control | dose: 0.57 mg/kg/injection, schedule: Q01DX Z (ip), vehicle: saline 103 % of control | dose: 0.8 mg/kg/injection, schedule: Q01DX Z (ip), vehicle: carboxymethylcellulose (CMC) 108 % of control

Cc1c(CBr)c2ccccc2[nH]c1=O
inactive: dose: 100.0 mg/kg/injection, schedule: Q01DX001 (ip), vehicle: other 97 % of control | dose: 200.0 mg/kg/injection, schedule: Q01DX001 (ip), vehicle: other 108 % of control

O=C1CC2(CCCCC2)C(=O)N1Nc1ccccc1
inactive: [2] 105 % of control | [4] 98 % of control | [5] 102 % of control

Cc1ccc(NC(=O)C2CCC(C)(C(=O)O)C2(C)C)cc1 (stereo unspecified)
inactive: dose: 50.0 mg/kg/injection, schedule: Q01DX009 (ip), vehicle: saline with Tween-80 104 % of control | dose: 100.0 mg/kg/injection, schedule: Q01DX009 (ip), vehicle: saline with Tween-80 101 % of control | dose: 200.0 mg/kg/injection, schedule: Q01DX009 (ip), vehicle: saline with Tween-80 93 % of control

CCNC(C)(C)C(SSSC(c1cccs1)C(C)(C)NCC)c1cccs1 (stereo unspecified)
inactive: [6] 108 % of control | [7] 103 % of control | dose: 100.0 mg/kg/injection, schedule: Q01DX009 (ip), vehicle: other 97 % of control | [11] 98 % of control
